Calls of active or inactive are those of the source. The rule behind the calls is not given here.
Key:
Felis catus [1] = species: Felis catus; assay: Inhibitory dose was evaluated on the cat cardioaccelerator nerve preparation; assay type: functional; settings: read-out: ID50 (the source's name)
[2] = target: D(2) dopamine receptor (Homo sapiens) (UniProt P14416); assay: Antagonistic activity at a dose of 3.4 umol/kg was evaluated against Dopamine receptor D2 in the […] cardioaccelerator nerve preparation; Inactive; assay type: functional; settings: Felis catus
[3] = target: D(2) dopamine receptor (Homo sapiens) (UniProt P14416); assay: Agonistic activity at a dose of 13.3 umol/kg was evaluated in rats with unilateral lesion of the nigrostriatal pathway (post junctional dopamine receptors); Inactive; assay type: functional; settings: Rattus norvegicus, target entry is the homologue from another species
[4] = target: D(2) dopamine receptor (Homo sapiens) (UniProt P14416); assay: Agonistic activity at a dose of 3.4 umol/kg was evaluated against Dopamine receptor D2 in the […] cardioaccelerator nerve preparation; Inactive; assay type: functional; settings: Felis catus
[5] = target: T1, Dopamine receptor (Rattus norvegicus) (UniProt P25115+P19020+P30729+P18901+P61169); assay: Antagonistic activity at a dose of 13.3 umol/kg was evaluated in rats with unilateral lesion of the nigrostriatal pathway (post junctional dopamine receptors); Inactive; assay type: functional
Felis catus [6] = species: Felis catus; assay: Inhibitory dose was evaluated against cat cardioaccelerator nerve preparation; assay type: functional; settings: read-out: ID50 (the source's name)
Felis catus [7] = assay: Compound at a dose of 100 ug/kg was evaluated for the reversal of the inhibition of nerve stimulation using the cat cardioaccelerator nerve preparation; Reversed inhibition; assay type: functional, organism-based
Felis catus [8] = assay: Compound at a dose of 50 ug/kg was evaluated for the reversal of the inhibition of nerve stimulation using the cat cardioaccelerator nerve preparation; Reversed inhibition; assay type: functional, organism-based
Felis catus [9] = species: Felis catus; assay: Inhibitory dose was evaluated for the inhibition of the chronotropic response to nerve stimulation using the cat cardioaccelerator nerve preparation; assay type: functional; settings: read-out: ID50 (the source's name)
[10] = target: D(2) dopamine receptor (Homo sapiens) (UniProt P14416); assay: Potency was evaluated for the activity against Dopamine receptor D2 of cat cardioaccelerator nerve preparation; Active; settings: Felis catus; target entry is the homologue from another species
[11] = target: D(2) dopamine receptor (Homo sapiens) (UniProt P14416); assay: Antagonistic activity at a dose of 3.08 umol/kg was evaluated against Dopamine receptor D2 in the […] cardioaccelerator nerve preparation; Inactive; assay type: functional
[12] = target: D(2) dopamine receptor (Homo sapiens) (UniProt P14416); assay: Agonistic activity at a dose of 3.08 umol/kg was evaluated against Dopamine receptor D2 in the […] cardioaccelerator nerve preparation; Inactive; assay type: functional; settings: Felis catus
[13] = target: D(2) dopamine receptor (Homo sapiens) (UniProt P14416); assay: Agonistic activity at a dose of 12.3 umol/kg was evaluated in rats with unilateral lesion of the nigrostriatal pathway (post junctional dopamine receptors); Inactive; assay type: functional; settings: Rattus norvegicus, target entry is the homologue from another species
[14] = target: T1, Dopamine receptor (Rattus norvegicus); assay: Antagonistic activity at a dose of 12.3 umol/kg was evaluated in rats with unilateral lesion of the nigrostriatal pathway (post junctional dopamine receptors); Inactive; assay type: functional

Sequence of D(2) dopamine receptor (Homo sapiens) (P14416 whole entry): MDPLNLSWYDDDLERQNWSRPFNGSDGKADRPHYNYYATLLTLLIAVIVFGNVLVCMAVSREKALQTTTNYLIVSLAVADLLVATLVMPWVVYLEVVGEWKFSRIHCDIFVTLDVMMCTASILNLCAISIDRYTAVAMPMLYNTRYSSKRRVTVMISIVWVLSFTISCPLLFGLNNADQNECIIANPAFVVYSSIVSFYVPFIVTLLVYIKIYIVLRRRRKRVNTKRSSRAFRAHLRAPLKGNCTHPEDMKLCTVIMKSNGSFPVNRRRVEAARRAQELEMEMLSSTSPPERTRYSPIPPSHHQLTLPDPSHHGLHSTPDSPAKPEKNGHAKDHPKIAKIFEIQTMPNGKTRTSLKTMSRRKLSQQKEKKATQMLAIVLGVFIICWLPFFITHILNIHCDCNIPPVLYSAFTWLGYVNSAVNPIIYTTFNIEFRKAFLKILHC

## CN1CCc2cccc3c2[C@H]1Cc1ccc(O)c(O)c1-3 [APOMORPHINE]
Felis catus [1]
  ED50: 0.022 µmol/kg

## CCCN(CCC)CCc1cc(OC)ccc1OC
[2]
  Activity: inactive
[3]
  Activity: inactive
[4]
  Activity: inactive
[5]
  Activity: inactive

## CCCN1CCC[C@@H]2Cc3c(OC)ccc(OC)c3C[C@H]21
Felis catus [6]
  ED50: 0.032 µmol/kg

## O=C(CCCN1CCC(O)(c2ccc(Cl)cc2)CC1)c1ccc(F)cc1
Felis catus [7]
  Activity: Active
Felis catus [8]
  Activity: Active

## CCCN1CCC[C@H]2c3c(OC)ccc(OC)c3CC[C@@H]21
Felis catus [9]
  ED50: 1.17 µmol/kg

## CCCN(CCC)C1CCc2c(O)cccc2C1 (stereo not given)
[10]
  Activity: Active

## CCCN(CCC)C1Cc2cccc(O)c2C1 (stereo not given)
[10]
  Activity: Active

## CCCN1CCC[C@@H]2c3c(OC)ccc(OC)c3CC[C@@H]21
[11]
  Activity: inactive
[12]
  Activity: inactive
[13]
  Activity: inactive
[14]
  Activity: inactive

Source: ChEMBL document CHEMBL1123196, “p-Dimethoxy-substituted trans-octahydrobenzo[f]- and -[g]quinolines: synthesis and assessment of dopaminergic agonist effects” (1986)
